Assay results as given in US10815212B2, “Cytotoxin compounds and methods of isolation” (priority 2004, dated 2020).

Assays:
[1] = Field-based feeding-deterrent assays
[2] = tested on: National Cancer Institute (NCI) 60 cell line panel
[3] = tested on: M14; assay: cells; conditions: Homo sapiens, M14, read-out: LC50
[4] = tested on: RXF 393; assay: cells; conditions: Homo sapiens, RXF 393, read-out: LC50
[5] = tested on: UACC-62
[6] = tested on: HCC-2998; assay: cells; conditions: Homo sapiens, HCC 2998, read-out: LC50
[7] = tested on: SK-MEL-5; assay: cells; conditions: Homo sapiens, SK-MEL-5, read-out: LC50
[8] = tested on: LOX IMVI; assay: cells; conditions: Homo sapiens, read-out: LC50
[9] = tested on: National Cancer Institute (NCI) 60 cell line panel; assay: cells; conditions: read-out: LC50

For `CC(C)=CC(=O)N/C=C/C(C)=C/C(C)C1C/C(C)=C/C=C/CCCC(OC(N)=O)C(O)C(O)/C=C/CC/C=C/C(=O)O1` (stereo not shown) [Palmerolide C], the “bioactivity in field-based feeding-deterrent assays” value (shortened to “bioactivity”) [1] was “displayed bioactivity”.
In the case of `C=C(C)C/C(C)=C\C(=O)N/C=C/C(C)=C/C(C)C1C/C(C)=C/C=C/CCC(OC(N)=O)C(O)/C=C/C(O)CCC/C=C/C(=O)O1` (stereo not shown) [Palmerolide D], the “bioactivity” value [1] was “displayed bioactivity”.
For `CC(C)=CC(=O)N/C=C/C(C)=C/C(C)C1C/C(C)=C/C=C/CCC(OC(N)=O)C(O)/C=C/C(O)CCC/C=C/C(=O)O1` (stereo not shown) [Palmerolide A], the “selectivity index among tested cell lines” value ([2]; most sensitive cells relative to other cell lines tested) was 10^3, the CC50 [3] was 0.076 µM and the “bioactivity” value [1] was “displayed bioactivity”. The CC50 [4] was 6.5 µM, the “cytotoxicity (in words)” value [5] was “displays cytotoxicity” and the CC50 [6] was 6.5 µM. The CC50 [7] was 6.8 µM, the CC50 [8] was 9.8 µM and the CC50 [9] was > 10 µM.
In the case of `C/C(C=O)=C\C(C)C1C/C(C)=C/C=C/CCC(OC(N)=O)C(O)/C=C/C(O)CCC/C=C/C(=O)O1` (stereo not shown) [Palmerolide E], the “activity/potency relative to palmerolide A (in words)” value ([2]; NCI 60 cell line bioassay) was “reduced activity” and the “bioactivity” value [1] was “displayed bioactivity”.
